This note sets out measurements from patent US12139492B2 (Endotarget Inc., priority 2021, dated 2024).

Holding throughout (format): cell-based
In one assay the test system is Mino cells. The assay can be described thus: Antiproliferative effect, MTS cell viability assay, Mino cells. The conditions noted are these: Homo sapiens, MINO, Mino mantle cell lymphoma cells; read-out: IC50 (anti-proliferation) Mino cells. In a few lines:
(§1)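 Cells were exposed to compound at 0, 0.001, 0.01, 0.1, 1 and 10 μM for 72 h. Viability was then measured by MTS assay, reading formazan produced by metabolically active cells as absorbance at 490 nm.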

The test system of the next assay is JeKo-1 cells. The assay can be described thus: Antiproliferative effect, MTS cell viability assay, JeKo-1 cells. The conditions noted are these: Homo sapiens; JeKo-1 mantle cell lymphoma cells; read-out: IC50 (anti-proliferation) JeKO-1 cells. In a few lines: as §1
The next assay has as its target BTK (Homo sapiens, UniProt Q06187). The assay can be described thus: BTK degradation, DC50 and Dmax of Table 1 (cell line not given). On the set-up: endogenous in cells. The settings on record: for DC50: concentration giving 50% reduction of BTK expression level.

Sequence of BTK (Q06187 whole entry): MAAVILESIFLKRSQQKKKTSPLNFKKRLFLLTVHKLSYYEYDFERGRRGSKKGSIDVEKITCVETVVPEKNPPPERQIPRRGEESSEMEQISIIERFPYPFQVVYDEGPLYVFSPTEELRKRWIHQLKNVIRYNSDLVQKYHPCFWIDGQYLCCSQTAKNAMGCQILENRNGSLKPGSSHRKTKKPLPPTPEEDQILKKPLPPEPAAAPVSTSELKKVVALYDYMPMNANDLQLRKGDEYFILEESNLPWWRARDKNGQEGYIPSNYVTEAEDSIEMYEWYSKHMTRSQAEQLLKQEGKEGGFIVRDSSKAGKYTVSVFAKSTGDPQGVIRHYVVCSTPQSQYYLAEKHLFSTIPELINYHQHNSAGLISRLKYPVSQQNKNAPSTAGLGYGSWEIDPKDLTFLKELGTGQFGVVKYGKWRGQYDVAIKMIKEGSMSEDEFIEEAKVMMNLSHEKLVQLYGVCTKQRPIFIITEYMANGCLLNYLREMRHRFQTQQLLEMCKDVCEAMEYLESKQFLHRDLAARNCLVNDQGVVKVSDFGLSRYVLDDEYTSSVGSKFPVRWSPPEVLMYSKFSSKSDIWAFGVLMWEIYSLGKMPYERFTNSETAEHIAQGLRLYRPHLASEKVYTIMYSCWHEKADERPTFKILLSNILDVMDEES

On to `Nc1ncnc2c1c(-c1ccc(Oc3ccccc3)cc1)nn2[C@@H]1CCCN(CC2CCN(CCCN3CCN(c4ccc5c(c4)CN(C4CCC(=O)NC4=O)C5=O)CC3)CC2)C1` (stereo partly drawn) [Compound 138, 3-(5-(4-(3-(4-(((R)-3-(4-amino-3-(4-phenoxyphenyl)-1H-pyrazolo[3,4-d]pyrimidin-1-yl)piperidin-1-yl)methyl)piperidin-1-yl)propyl)piperazin-1-yl)-1-oxoisoindolin-2-yl)piperidine-2,6-dione], for which the IC50 in the assay on Mino cells fell in the range of 1000 to 10000 nM. Besides, the IC50 in the assay with JeKo-1 cells was above 10000 nM. On BTK, the Dmax is above 75% and the DC50 was in the range of 10 to 50 nM.

As for `Nc1ncnc2c1c(-c1ccc(Oc3ccccc3)cc1)nn2[C@@H]1CCCN(CC2CCN(CCCN3CCC(c4ccc5c(c4)C(=O)N(C4CCC(=O)NC4=O)C5=O)CC3)CC2)C1` (stereo partly drawn) [Compound 139, 5-(1-(3-(4-(((R)-3-(4-amino-3-(4-phenoxyphenyl)-1H-pyrazolo[3,4-d]pyrimidin-1-yl)piperidin-1-yl)methyl)piperidin-1-yl)propyl)piperidin-4-yl)-2-(2,6-dioxopiperidin-3-yl)isoindoline-1,3-dione], the IC50 in the assay on Mino cells is above 10000 nM. Besides, the IC50 with JeKo-1 cells was above 10000 nM. In addition, at BTK, the Dmax was above 75% and the DC50 was in the range of 10 to 50 nM.

Consider `Nc1ncnc2c1c(-c1ccc(Oc3ccccc3)cc1)nn2[C@@H]1CCCN(CC2CCN(CCCN3CCC(c4ccc5c(c4)CN(C4CCC(=O)NC4=O)C5=O)CC3)CC2)C1` (stereo partly drawn) [Compound 140, 3-(5-(1-(3-(4-(((R)-3-(4-amino-3-(4-phenoxyphenyl)-1H-pyrazolo[3,4-d]pyrimidin-1-yl)piperidin-1-yl)methyl)piperidin-1-yl)propyl)piperidin-4-yl)-1-oxoisoindolin-2-yl)piperidine-2,6-dione], for which the IC50 in the assay with Mino cells lay in the range of 1000 to 10000 nM. The IC50 in the assay with JeKo-1 cells was above 10000 nM. At BTK, this compound registered a Dmax above 75% and a DC50 of 10 to 50 nM.

For the compound `Nc1ncnc2c1c(-c1ccc(Oc3ccccc3)cc1)nn2[C@@H]1CCCN(CC2CCN(CCCC3CCN(c4ccc5c(c4)C(=O)N(C4CCC(=O)NC4=O)C5=O)CC3)CC2)C1` (stereo partly drawn) [Compound 141, 5-(4-(3-(4-(((R)-3-(4-amino-3-(4-phenoxyphenyl)-1H-pyrazolo[3,4-d]pyrimidin-1-yl)piperidin-1-yl)methyl)piperidin-1-yl)propyl)piperidin-1-yl)-2-(2,6-dioxopiperidin-3-yl)isoindoline-1,3-dione], in the assay with Mino cells, the IC50 is 1000 to 10000 nM. In addition, in the assay with JeKo-1 cells, the IC50 was 1000 to 10000 nM. At BTK, this compound displayed a Dmax above 75% and a DC50 above 50 nM.

Regarding `Nc1ncnc2c1c(-c1ccc(Oc3ccccc3)cc1)nn2[C@@H]1CCCN(CC2CCN(CCCC3CCN(c4ccc5c(c4)CN(C4CCC(=O)NC4=O)C5=O)CC3)CC2)C1` (stereo partly drawn) [Compound 142, 3-(5-(4-(3-(4-(((R)-3-(4-amino-3-(4-phenoxyphenyl)-1H-pyrazolo[3,4-d]pyrimidin-1-yl)piperidin-1-yl)methyl)piperidin-1-yl)propyl)piperidin-1-yl)-1-oxoisoindolin-2-yl)piperidine-2,6-dione], the IC50 in the assay on Mino cells was 1000 to 10000 nM. Besides, the IC50 in the assay on JeKo-1 cells was above 10000 nM. On BTK, this compound had a Dmax above 75% and a DC50 of 10 to 50 nM.

In the case of `Nc1ncnc2c1c(-c1ccc(Oc3ccccc3)cc1)nn2[C@@H]1CCCN(C2CCN(CC3CCN(c4ccc5c(c4)C(=O)N(C4CCC(=O)NC4=O)C5=O)CC3)CC2)C1` (stereo partly drawn) [Compound 143, 5-(4-(((R)-3-(4-amino-3-(4-phenoxyphenyl)-1H-pyrazolo[3,4-d]pyrimidin-1-yl)-[1,4′-bipiperidin]-1′-yl)methyl)piperidin-1-yl)-2-(2,6-dioxopiperidin-3-yl)isoindoline-1,3-dione], the IC50 in the assay with Mino cells and in the assay on JeKo-1 cells was above 10000 nM in each case. For the same compound, the Dmax on BTK was above 90%. Moreover, at BTK, the DC50 lay within 10 to 50 nM.
